Measured values published in patent publication US10287301B2 (Achillion Pharmaceuticals, Inc., priority 2015, dated 2019).

The compounds below were run against Human Factor D (Homo sapiens (Human), UniProt P00746) (assay: Human Factor D Assay). Details: Human Factor D assay of Example 8; Table 2; read-out: IC50.
Assay type: biochemical
Method in brief: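 Thioester cleavage assay: human Factor D (serum-derived, 80 nM final), substrate Z-L-Lys-SBzl with DTNB, both 100 μM final, after 5 min compound preincubation at room temperature.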

Chain of Human Factor D (P00746 26-253): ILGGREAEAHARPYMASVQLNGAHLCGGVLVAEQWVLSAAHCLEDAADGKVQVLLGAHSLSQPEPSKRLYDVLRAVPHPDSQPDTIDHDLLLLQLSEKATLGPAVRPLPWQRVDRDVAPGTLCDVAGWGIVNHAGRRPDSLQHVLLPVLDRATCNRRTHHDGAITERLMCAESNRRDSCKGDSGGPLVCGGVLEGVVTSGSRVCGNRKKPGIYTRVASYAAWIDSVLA

Row | Structure (SMILES) | IC50
1 | CC(=O)c1nn(CC(=O)N2C[C@H](F)C[C@H]2C(=O)Nc2cccc(Br)n2)c2ccc(-c3cnc4cccnn34)cc12 [Compound 302, (2S,4R)-1-(2-(3-acetyl-5-(imidazo[1,2-b]pyridazin-3-yl)-1H-indazol-1-yl)acetyl)-N-(6-bromopyridin-2-yl)-4-fluoropyrrolidine-2-carboxamide] | < 1000 nM
2 | CC(=O)c1nn(CC(=O)N2C[C@H](F)C[C@H]2C(=O)Nc2cccc(Br)n2)c2ccc(-c3ccc4nccn4n3)cc12 [Compound 303, (2S,4R)-1-(2-(3-acetyl-5-(imidazo[1,2-b]pyridazin-6-yl)-1H-indazol-1-yl)acetyl)-N-(6-bromopyridin-2-yl)-4-fluoropyrrolidine-2-carboxamide] | < 1000 nM
3 | CC(=O)c1nn(CC(=O)N2C[C@H](F)C[C@H]2C(=O)Nc2cccc(Br)n2)c2ccc(-c3cnn4ccnc4c3)cc12 [Compound 304, (2S,4R)-1-(2-(3-acetyl-5-(imidazo[1,2-b]pyridazin-7-yl)-1H-indazol-1-yl)acetyl)-N-(6-bromopyridin-2-yl)-4-fluoropyrrolidine-2-carboxamide] | < 1000 nM
4 | CC(=O)c1nn(CC(=O)N2C[C@H](F)C[C@H]2C(=O)Nc2cccc(-c3cc(F)ccc3S(C)(=O)=O)c2F)c2ccc(-c3cnc(C)nc3)cc12 [Compound 305, (2S,4R)-1-(2-(3-Acetyl-5-(2-methylpyrimidin-5-yl)-1H-indazol-1-yl)acetyl)-N-(2,5′-difluoro-2′-(methylsulfonyl)-[1,1′-biphenyl]-3-yl)-4-fluoropyrrolidine-2-carboxamide] | < 1000 nM
5 | CC(=O)c1nn(CC(=O)N2C[C@H](F)C[C@H]2C(=O)Nc2cncc(Br)n2)c2ccc(-c3cnc4cc(C)nn4c3)cc12 [Compound 306, (2S,4R)-1-(2-(3-acetyl-5-(2-methylpyrazolo[1,5-a]pyrimidin-6-yl)-1H-indazol-1-yl)acetyl)-N-(6-bromopyrazin-2-yl)-4-fluoropyrrolidine-2-carboxamide] | < 1000 nM
6 | Cc1ncc(-c2ccc3c(c2)c(C(N)=O)cn3CC(=O)N2C[C@H](F)C[C@H]2C(=O)Nc2cccc(Br)n2)cn1 [Compound 307, 1-(2-((2S,4R)-2-(6-bromopyridin-2-ylcarbamoyl)-4-fluoropyrrolidin-1-yl)-2-oxoethyl)-5-(2-methylpyrimidin-5-yl)-1H-indole-3-carboxamide] | < 1000 nM
7 | CC(=O)c1nn(CC(=O)N2CCS[C@H]2C(=O)Nc2cccc(Br)n2)c2ccc(-c3cnc(C)nc3)cc12 [Compound 308, (S)-3-(2-(3-acetyl-5-(2-methylpyrimidin-5-yl)-1H-indazol-1-yl)acetyl)-N-(6-bromopyridin-2-yl)thiazolidine-2-carboxamide] | < 1000 nM
8 | CC(=O)c1nn(CC(=O)N2C[C@H](F)C[C@H]2C(=O)Nc2cccc(Br)n2)c2ccc(-c3cnc4n3CCCC4)cc12 [Compound 309, (2S,4R)-1-(2-(3-acetyl-5-(5,6,7,8-tetrahydroimidazo [1,2-a]pyridin-3-yl)-1H-indazol-1-yl)acetyl)-N-(6-bromopyridin-2-yl)-4-fluoropyrrolidine-2-carboxamide] | < 1000 nM
9 | CC(=O)c1cn(CC(=O)N2C[C@H](F)C[C@H]2C(=O)Nc2cncc(Br)n2)c2ccc(-c3cnc4cc(C)nn4c3)cc12 [Compound 310, (2S,4R)-1-(2-(3-acetyl-5-(2-methylpyrazolo[1,5-a]pyrimidin-6-yl)-1H-indol-1-yl)acetyl)-N-(6-bromopyrazin-2-yl)-4-fluoropyrrolidine-2-carboxamide] | < 1000 nM
10 | CC(=O)c1nn(CC(=O)N2C[C@H](F)C[C@H]2C(=O)Nc2cccc(Br)n2)c2ccc(-c3ccc4nc(C)nn4c3)cc12 [Compound 311, (2S,4R)-1-(2-(3-acetyl-5-(2-methyl-[1,2,4]triazolo[1,5-a]pyridin-6-yl)-1H-indazol-1-yl)acetyl)-N-(6-bromopyridin-2-yl)-4-fluoropyrrolidine-2-carboxamide] | < 1000 nM
11 | CC(=O)c1nn(CC(=O)N2CSC[C@H]2C(=O)Nc2cccc(Br)n2)c2ccc(-c3cnc(C)nc3)cc12 [Compound 312, (R)-3-(2-(3-acetyl-5-(2-methylpyrimidin-5-yl)-1H-indazol-1-yl)acetyl)-N-(6-bromopyridin-2-yl)thiazolidine-4-carboxamide] | < 1000 nM
12 | CC(=O)c1nn(CC(=O)N2C[C@H](F)C[C@H]2C(=O)Nc2cncc(C(F)(F)F)n2)c2ccc(-c3cnc4cc(C)nn4c3)cc12 [Compound 313, (2S,4R)-1-(2-(3-acetyl-5-(2-methylpyrazolo[1,5-a]pyrimidin-6-yl)-1H-indazol-1-yl)acetyl)-4-fluoro-N-(6-(trifluoromethyl)pyrazin-2-yl)pyrrolidine-2-carboxamide] | < 1000 nM
13 | Cc1ncc(-c2cc3c(s2)c(C(N)=O)nn3CC(=O)N2C[C@H](F)C[C@H]2C(=O)Nc2cccc(-c3ccccc3Cl)c2F)cn1 [Compound 314, 1-(2-((2S,4R)-2-((2′-Chloro-2-fluoro-[1,1′-biphenyl]-3-yl)carbamoyl)-4-fluoropyrrolidin-1-yl)-2-oxoethyl)-5-(2-methylpyrimidin-5-yl)-1H-thieno[3,2-c]pyrazole-3-carboxamide] | < 1000 nM
14 | CC(=O)c1nn(CC(=O)N2CC[C@@H](O)[C@H]2C(=O)Nc2cccc(Br)n2)c2ccc(-c3cnc(C)nc3)cc12 [Compound 315, (2S,3R)-1-(2-(3-acetyl-5-(2-methylpyrimidin-5-yl)-1H-indazol-1-yl)acetyl)-N-(6-bromopyridin-2-yl)-3-hydroxypyrrolidine-2-carboxamide] | < 1000 nM
15 | COCCOCCOCCOCCOCCOc1ncc(-c2ccc3c(c2)c(C(C)=O)nn3CC(=O)N2C[C@H](F)C[C@H]2C(=O)Nc2cccc(Br)n2)cn1 [Compound 316] | < 1000 nM
16 | CC(=O)c1nn(CC(=O)N2C[C@H](F)C[C@H]2C(=O)Nc2cncc(Br)n2)c2ccc(-c3cnc(C)nc3)cc12 [Compound 317, (2S,4R)-1-(2-(3-acetyl-5-(2-methylpyrimidin-5-yl)-1H-indazol-1-yl)acetyl)-N-(6-bromopyrazin-2-yl)-4-fluoropyrrolidine-2-carboxamide] | < 1000 nM
17 | COc1cc2c(cc1-c1cnc(C)nc1)c(C(C)=O)cn2CC(=O)N1C[C@H](F)C[C@H]1C(=O)Nc1cccc(-c2ccccc2Cl)c1F [Compound 318, (2S,4R)-1-(2-(3-Acetyl-6-methoxy-5-(2-methylpyrimidin-5-yl)-1H-indol-1-yl)acetyl)-N-(2′-chloro-2-fluoro-[1,1′-biphenyl]-3-yl)-4-fluoropyrrolidine-2-carboxamide] | < 1000 nM
18 | COc1cc2c(cc1-c1cnc(C)nc1)c(C(C)=O)cn2CC(=O)N1C[C@H](F)C[C@H]1C(=O)Nc1cccc(Br)n1 [Compound 319, (2S,4R)-1-(2-(3-Acetyl-6-methoxy-5-(2-methylpyrimidin-5-yl)-1H-indol-1-yl)acetyl)-N-(6-bromopyridin-2-yl)-4-fluoropyrrolidine-2-carboxamide] | < 1000 nM
19 | CC(=O)c1cn(CC(=O)N2C[C@H](F)C[C@H]2C(=O)Nc2cccc(-c3ccccc3Cl)c2F)c2cc(O)c(-c3cnc(C)nc3)cc12 [Compound 320, (4R)-1-(2-(3-Acetyl-6-hydroxy-5-(2-methylpyrimidin-5-yl)-1H-indol-1-yl)acetyl)-N-(2′-chloro-2-fluoro-[1,1′-biphenyl]-3-yl)-4-fluoropyrrolidine-2-carboxamide] | < 1000 nM
